Key:
[1] = target: T1, alpha-1A adrenoceptors (Homo sapiens, UniProt P35348); experiment: alpha-1A adrenoceptor partial agonist activity (intrinsic activity and pEC50); assay type: cell-based
T1 sequence (P35348 1-466): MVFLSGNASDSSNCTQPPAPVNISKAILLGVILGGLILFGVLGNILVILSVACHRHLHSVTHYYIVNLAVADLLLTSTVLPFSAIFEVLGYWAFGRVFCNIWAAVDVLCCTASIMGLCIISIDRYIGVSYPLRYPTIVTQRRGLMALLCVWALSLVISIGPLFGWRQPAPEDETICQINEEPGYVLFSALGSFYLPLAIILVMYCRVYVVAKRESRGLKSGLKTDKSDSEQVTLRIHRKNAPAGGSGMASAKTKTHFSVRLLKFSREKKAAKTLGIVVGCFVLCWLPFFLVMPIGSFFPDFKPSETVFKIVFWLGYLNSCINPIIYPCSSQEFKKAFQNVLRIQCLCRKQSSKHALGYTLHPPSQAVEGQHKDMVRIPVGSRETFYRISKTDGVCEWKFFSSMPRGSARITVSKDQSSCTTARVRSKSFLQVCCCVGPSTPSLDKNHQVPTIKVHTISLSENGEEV

[2] = system: Female, Dutch Belted rabbits; experiment: Anesthetized rabbit model: intraurethral pressure (IUP) and mean arterial blood pressure (MAP); assay type: in vivo; settings: i.v.; for durability of IUP response over time: slope of IUP response 2-7 minutes post the first peak, top 3 doses
Method: In general, IUP is the intraurethral pressure and is measured as the 2 minute mean from the first peak of the urethral response (FIG. 1). MAP is the mean arterial blood pressure and is measured as the average blood pressure during the 2 minute section where IUP is measured. The durability is the slope of the IUP response in mmHg/min and is calculated immediately after the 2 minute IUP response for 5 minutes (2-7 minutes post the first peak) for the top 3 doses.
Surgery: Female, Dutch Belted rabbits (1.20-2.0 kg, Myrtle's Rabbitry, Tenn.) were anesthetized with isoflurane (3.0% at 2 to 4 L/min) and urethane (1.5 grams/kg, s.c.). In preparation for surgery, the rabbits were shaved, scrubbed (i.e., perineal area, ventral neck, and ventral, caudal surface of the abdomen) and were administered Ringers Lactate Solution (s.c.) to maintain fluids. The femoral vein and carotid artery were isolated and cannulated with PE-50 and PE-90 tubing (Becton-Dickinson), respectively, for the administration of drugs (vein) and the measurement of blood pressure (artery). An abdominal incision was made, exposing the ureters and the bladder. The ureters were isolated and cannulated proximal to the urinary bladder with PE-50 tubing, to drain urine from the kidneys. […]
Experiment: The arterial cannula was connected to a P23XL pressure transducer (Grass Technologies, West Warwick, R.I.) and the arterial pressure transducer and Unisensor urethral transducer catheter were connected to an Gould 13-6615-50 amplifier (Data Sciences International, St. Paul, Minn.) and Gould TA6000 recorder (Data Sciences International, St. Paul, Minn.) in parallel. All data was analyzed using Power Lab Chart version 5.0.2 (ADInstruments, Colorado Springs, Colo.) data acquisition system. […]
Measurements: The change in IUP and MAP from baseline were measured as well as the slope of the IUP response. MAP was first calculated according to the following formula, where Pd is diastolic pressure and Ps is systolic pressure: MAP=Pd+⅓ (Ps−Pd). Pre-dose baseline values for IUP and MAP were assessed during a 2 min period just prior to vehicle or test compound administration. Post-dose values for IUP or MAP were determined during a 2 min period at the first peak in the IUP tracing following vehicle or test compound administration. The change in IUP and MAP induced by vehicle or test compound were then calculated by subtracting the pre-dose value from the post-dose value. The rate of decline (mmHg/min) in the IUP response was determined by taking the average slope during the 5 min. period immediately following the 2 min. efficacy measurement for the top three doses. […]

Cc1c(CC2=NCCN2)ccc(NS(C)(=O)=O)c1F [Formula I, N-[4-(4,5-Dihydro-1H-imidazol-2-ylmethyl)-2-fluoro-3-methyl-phenyl]-methanesulfonamide]
intrinsic activity, or efficacy, as a partial agonist ([1]; ideally between 0.35 to 0.60): 0.46
EC50 ([1]; read-out: affinity, or pEC50 value (converted)): 0.631 µM
maximum increase in MAP (arterial blood pressure) [2]: 10.62 mmHg
selectivity for enhancement of intraurethral pressure (IUP) over blood pressure (MAP) (Urethral Selectivity MAP/IUP = ED10 of MAP/ED10 of IUP) ([2]; at the 10 mmHg change in IUP level): 2.13 fold
durability of IUP response over time [2]: improved durability of IUP response over time
durability of IUP response over time ([2]; listed as formula I): increased durability of IUP response over time
